Experimental data as given in patent US20260042731A1, “(2,4-DICHLOROPHENOXY)ACETIC ACID ANALOGS” (CORTEVA AGRISCIENCE LLC, priority 2022, published 2026).
Where two headings read alike, the source gives them in different places.

Key:
[1] = system: Amaranthus rudis (AMATA), tall water hemp; assay: Postemergence herbicide evaluation, growth of Amaranthus rudis (AMATA); assay type: in vivo; details: Amaranthus tuberculatus, post-emergence, percent reduction in plant size relative to untreated control, read-out: Ave. AMATA; for pest or weed control at 280 g/ha: 280 g ae/ha; for pest or weed control at 560 g/ha: 560 g ae/ha
[2] = system: Ambrosia artemisiifolia (AMBEL), common ragweed; assay: Postemergence herbicide evaluation, growth of Ambrosia artemisiifolia (AMBEL); assay type: in vivo; details: Ambrosia artemisiifolia, post-emergence, percent reduction in plant size relative to untreated control, read-out: AVE. AMBEL; for pest or weed control at 280 g/ha: 280 g ae/ha; for pest or weed control at 560 g/ha: 560 g ae/ha
[3] = system: Abutilon theophrasti (ABUTH), velvetleaf; assay: Postemergence herbicide evaluation, growth of Abutilon theophrasti (ABUTH); assay type: in vivo; details: Abutilon theophrasti, post-emergence, percent reduction in plant size relative to untreated control, read-out: AVE. ABUTH; for pest or weed control at 280 g/ha: 280 g ae/ha; for pest or weed control at 560 g/ha: 560 g ae/ha
[4] = system: Chenopodium album (CHEAL), common lambsquarters; assay: Postemergence herbicide evaluation, growth of Chenopodium album (CHEAL); assay type: in vivo; details: Chenopodium album, post-emergence, percent reduction in plant size relative to untreated control, read-out: Ave. CHEAL; for pest or weed control at 280 g/ha: 280 g ae/ha; for pest or weed control at 560 g/ha: 560 g ae/ha
[5] = system: glyphosate resistant Conyza canadensis (L.) (ERICA), horseweed; assay: Postemergence herbicide evaluation, growth of Conyza canadensis (ERICA); assay type: in vivo; details: Erigeron canadensis, post-emergence, percent reduction in plant size relative to untreated control, read-out: Ave. ERICA; for pest or weed control at 280 g/ha: 280 g ae/ha; for pest or weed control at 560 g/ha: 560 g ae/ha
[6] = Volatility of compounds measured by thermogravimetric analysis (TGA); assay type: physicochemical
[7] = system: weeds (ABUTH, AMATA, AMBEL, CHEAL, ERICA); assay: Postemergence herbicide evaluation, overall average % weed control across ABUTH, AMATA, AMBEL, CHEAL, ERICA; assay type: in vivo; details: post-emergence, average over the five weeds, read-out: Overall Ave % Weed Control; for pest or weed control at 280 g/ha: 280 g ae/ha; for pest or weed control at 560 g/ha: 560 g ae/ha

Structure (SMILES)	pest or weed control at 280 g/ha ([1]; 168 h, 7 DAA) [%]	pest or weed control at 560 g/ha ([1]; 168 h, 7 DAA) [%]	pest or weed control at 280 g/ha ([1]; 336 h, 14 DAA) [%]	pest or weed control at 560 g/ha ([1]; 336 h, 14 DAA) [%]	pest or weed control at 280 g/ha ([1]; 504 h, 21 DAA) [%]	pest or weed control at 560 g/ha ([1]; 504 h, 21 DAA) [%]	pest or weed control at 280 g/ha ([2]; 168 h, 7 DAA) [%]	pest or weed control at 560 g/ha ([2]; 168 h, 7 DAA) [%]	pest or weed control at 280 g/ha ([2]; 336 h, 14 DAA) [%]	pest or weed control at 560 g/ha ([2]; 336 h, 14 DAA) [%]	pest or weed control at 280 g/ha ([2]; 504 h, 21 DAA) [%]	pest or weed control at 560 g/ha ([2]; 504 h, 21 DAA) [%]	pest or weed control at 280 g/ha ([3]; 168 h, 7 DAA) [%]	pest or weed control at 560 g/ha ([3]; 168 h, 7 DAA) [%]	pest or weed control at 280 g/ha ([3]; 336 h, 14 DAA) [%]	pest or weed control at 560 g/ha ([3]; 336 h, 14 DAA) [%]	pest or weed control at 280 g/ha ([3]; 504 h, 21 DAA) [%]	pest or weed control at 560 g/ha ([3]; 504 h, 21 DAA) [%]	pest or weed control at 280 g/ha ([4]; 168 h, 7 DAA) [%]	pest or weed control at 560 g/ha ([4]; 168 h, 7 DAA) [%]	other results
CCO/C(CC)=N\OC(=O)COc1ccc(Cl)cc1Cl [Compound A9, Ethyl N-2-(2,4-dichlorophenoxy)acetoxypropionimidate]	65	78	63	85	60	84	73	83	93	93	92	96	80	80	80	96	89	95	70	65	pest or weed control at 280 g/ha ([4]; 336 h, 14 DAA): 83%; pest or weed control at 560 g/ha ([4]; 336 h, 14 DAA): 68%; pest or weed control at 280 g/ha ([4]; 504 h, 21 DAA): 88%; pest or weed control at 560 g/ha ([4]; 504 h, 21 DAA): 75%; pest or weed control at 280 g/ha ([5]; 168 h, 7 DAA): 70%; pest or weed control at 560 g/ha ([5]; 168 h, 7 DAA): 70%; pest or weed control at 280 g/ha ([5]; 336 h, 14 DAA): 91%; pest or weed control at 560 g/ha ([5]; 336 h, 14 DAA): 84%; pest or weed control at 280 g/ha ([5]; 504 h, 21 DAA): 99%; pest or weed control at 560 g/ha ([5]; 504 h, 21 DAA): 97%; TGA Data (rate of weight loss, volatility) [6]: 0.5 µg/min; pest or weed control at 280 g/ha ([7]; 168 h, 7 DAA): 72%; pest or weed control at 560 g/ha ([7]; 168 h, 7 DAA): 75%; pest or weed control at 280 g/ha ([7]; 336 h, 14 DAA): 82%; pest or weed control at 560 g/ha ([7]; 336 h, 14 DAA): 85%; pest or weed control at 280 g/ha ([7]; 504 h, 21 DAA): 85%; pest or weed control at 560 g/ha ([7]; 504 h, 21 DAA): 89%
CS/C(C)=N\OC(=O)COc1ccc(Cl)cc1Cl [Compound A10, Methyl N-2-(2,4-dichlorophenoxy)acetoxyethanimidothioate]	80	78	80	73	78	83	70	75	85	92	100	96	83	88	90	92	98	94	65	70	pest or weed control at 280 g/ha ([4]; 336 h, 14 DAA): 75%; pest or weed control at 560 g/ha ([4]; 336 h, 14 DAA): 83%; pest or weed control at 280 g/ha ([4]; 504 h, 21 DAA): 83%; pest or weed control at 560 g/ha ([4]; 504 h, 21 DAA): 53%; pest or weed control at 280 g/ha ([5]; 168 h, 7 DAA): 63%; pest or weed control at 560 g/ha ([5]; 168 h, 7 DAA): 68%; pest or weed control at 280 g/ha ([5]; 336 h, 14 DAA): 85%; pest or weed control at 560 g/ha ([5]; 336 h, 14 DAA): 83%; pest or weed control at 280 g/ha ([5]; 504 h, 21 DAA): 93%; pest or weed control at 560 g/ha ([5]; 504 h, 21 DAA): 94%; TGA Data (rate of weight loss, volatility) [6]: 0.6 µg/min; pest or weed control at 280 g/ha ([7]; 168 h, 7 DAA): 72%; pest or weed control at 560 g/ha ([7]; 168 h, 7 DAA): 76%; pest or weed control at 280 g/ha ([7]; 336 h, 14 DAA): 83%; pest or weed control at 560 g/ha ([7]; 336 h, 14 DAA): 84%; pest or weed control at 280 g/ha ([7]; 504 h, 21 DAA): 90%; pest or weed control at 560 g/ha ([7]; 504 h, 21 DAA): 84%
O=C(COc1ccc(Cl)cc1Cl)ON1CCCCC1 [Compound A11, Piperidin-1-yl 2-(2,4-dichlorophenoxy)acetate]	73	75	89	85	85	88	65	78	90	97	95	100	83	85	93	89	99	95	68	70	pest or weed control at 280 g/ha ([4]; 336 h, 14 DAA): 75%; pest or weed control at 560 g/ha ([4]; 336 h, 14 DAA): 80%; pest or weed control at 280 g/ha ([4]; 504 h, 21 DAA): 80%; pest or weed control at 560 g/ha ([4]; 504 h, 21 DAA): 97%; pest or weed control at 280 g/ha ([5]; 168 h, 7 DAA): 65%; pest or weed control at 560 g/ha ([5]; 168 h, 7 DAA): 68%; pest or weed control at 280 g/ha ([5]; 336 h, 14 DAA): 90%; pest or weed control at 560 g/ha ([5]; 336 h, 14 DAA): 85%; pest or weed control at 280 g/ha ([5]; 504 h, 21 DAA): 95%; pest or weed control at 560 g/ha ([5]; 504 h, 21 DAA): 95%; TGA Data (rate of weight loss, volatility) [6]: 4 µg/min; pest or weed control at 280 g/ha ([7]; 168 h, 7 DAA): 71%; pest or weed control at 560 g/ha ([7]; 168 h, 7 DAA): 75%; pest or weed control at 280 g/ha ([7]; 336 h, 14 DAA): 87%; pest or weed control at 560 g/ha ([7]; 336 h, 14 DAA): 87%; pest or weed control at 280 g/ha ([7]; 504 h, 21 DAA): 91%; pest or weed control at 560 g/ha ([7]; 504 h, 21 DAA): 95%
